Data on 13 molecules can be found in patent US12673921B2, “Substituted fluorine-containing imidazole salt compound, preparation method therefor, pharmaceutical composition thereof and use thereof” (XIAMEN VIVOHEALTHS TECHNOLOGY CO., LTD., priority 2019, dated 2026).

The structures appear in SMILES notation.

Data set [1] is described as follows: Liver microsome stability test, human liver microsome. It is filed as in vitro ADME. As to conditions: 0.5 mg protein/mL microsome, 1 μM compound, 37° C., NADPH, read-out: HLM 0.5 T1/2 (min), half life in human liver microsome. Here is the method:
(§1) The experimental steps were as follows: • 1. Preparation of working solution • 1.1 Intermediate solution: 5 μL of a 10 mM stock solution of sample or control was taken out, and diluted with 495 μl of methanol (Conc.: 100 μM, 99% MeOH). • 1.2 Working solution: 50 μL of the intermediate solution was taken out, and diluted with 450 μL of a 100 mM potassium phosphate buffer (Conc.: 10 μM, 9.9% MeOH). • 2. Preparation of NADPH cofactor
(§2) An appropriate amount of NADPH powder was weighed, and dissolved with a MgCl2 (10 mM) solution. • 3. Liver microsome • 3.1 Liver microsome information
(§3) • 3.2 Preparation: a microsome working solution with an appropriate concentration was prepared by using a 100 mM potassium phosphate buffer. • 4. Stop solution
(§4) Glacial acetonitrile, comprising 100 ng/ml Tolbutamide and 100 ng/ml Labetalol as internal standards. • 5. Experimental procedures • 5.1 10 μL of the working solution of sample or control was added per well to all plates (T0, T5, T10, T20, T30, T60, NCF60), except for the blank group; • 5.2 80 μL of the working solution of microsome was added per well to all plates, followed by incubation for 10 min at 37° C.; • 5.3 10 μL of a 100 mM potassium phosphate buffer was added per well to NCF60, followed by incubation at 37° C. and starting timer 1;
(§5) • 5.4 After preheating, 10 μL of NADPH was added per well to each plate, and reaction was started;
(§6) Final concentration of each component in the incubation medium:
(§7) • 5.6 300 μL of the stop solution was added per well to stop the reaction; • 5.7 The system was shaken for about 10 min; • 5.8 The samples were centrifuged (4000 rpm) at 4° C. for 20 min; • 5.9 To 8 new 96-well plates, 300 μL of HPLC water was added per well, then 100 μL of the supernatant was added, mixed and subjected to LC/MS/MS.
(§8) In the above table, HLM 0.5 T1/2 (min) refers to half life (min) of compounds in human liver microsome, DLM 0.5 T1/2 (min) refers to half life (min) of compounds in Beagle dog liver microsome.
In general terms: Liver microsomes are vesicles of endoplasmic reticulum, rich in cytochrome P450 enzymes.

Data set [2] can be described thus: Liver microsome stability test, Beagle dog liver microsome. It is filed as in vitro ADME. As to conditions: 0.5 mg protein/mL microsome, 1 μM compound, 37° C., NADPH, read-out: DLM 0.5 T1/2 (min), half life in Beagle dog liver microsome. Here is the method: as §1, §2, §3, §4, §5, §6, §7, §8
For data set [3], the system named is AMPK. The data set is described as follows: AMPK activity assay at cell level (western blot of p-AMPKα and p-ACC in MEFs). It is filed as cell-based, mouse. Conditions: MEF cells, compound 10 nM, 2 h; multiple of the ratio relative to positive control AICAR (3 mM); band brightness by Image J. The protocol: The ability of compounds to activate AMPK in mouse embryonic fibroblasts (MEFs) was determined, which could be specifically carried out by detecting the phosphorylation level (p-AMPKα) of threonine at the 172nd position of AMPK and the phosphorylation level (p-ACC) of serine at the 79th position of the susbtrate ACC1/ACC2 of AMPK (FIG. 1 and Table I) by western blot.
The specific method was as follows: • (1) MEFs with loxP insertion sequences or of wild-type were plated in a 6-well plate and cultured in DMEM containing 10% serum. If a gene needed to be knocked out at this time, when the density of the corresponding MEFs with loxP insertion sequences reached about 30%, an adenovirus capable of expressing cre should be added to the culture well followed by further culture for more than 24 h; • (2) When the cell density was close to 90%, the cells were provided with fresh DMEM, at the same time, a compound (final concentration 10 nM) was added to the cells, followed by culture for 2 h, with an equal volume of DMSO as the negative control, and the cells treated with the addition of AICAR (3 mM) as the positive control; • (3) After sucking up the culture solution, the cells were lysed with 200 μL of a cell lysate (its formulation was given below), then the cells were scraped from the culture dish, ultrasonicated, and subjected to low temperature centrifugation at 20000 g for 10 min; • (4) The supernatant and an equal volume of 2*SDS solution (its formulation was given below) were mixed, and subjected to SDS-PAGE in a concentration of 8%, then the protein was transferred to PVDF membrane; each PVDF membrane was blocked with 25 mL of skim milk for 1 h, and then rinsed with TBST buffer (its formulation was given below) 3 times for 10 min each time; • (5) AMPKα subunit primary antibody (Cell Signaling Technology, #2532), primary antibody of phosphothreonine at the 172nd position of AMPK (Cell Signaling Technology, #2535), ACC primary antibody (Cell Signaling Technology, #3662), or primary antibody of phosphoserine at the 79th position of ACC (Cell Signaling Technology, #3661) was diluted in a ratio of 1:1000 with a primary antibody dilution (its formulation was given below), reacted with the PVDF membrane at room temperature for 12 h, and then rinsed 3 times with TBST buffer; • (6) A 1:1000 dilution of HRP-conjugated goat anti-rabbit secondary antibody (Jackson ImmunoResearch, 111-035-003) was added, reacted at room temperature for 1 h, and then rinsed 3 times with TBST buffer; • (7) The PVDF membrane was dried, reacted in an ECL mixture (WesternBright ECL HRP substrate, Advansta) and subjected to exposure with medical X-ray, developed, finally rinsed, dried, and then scanned to obtain data related to AMPK activation.
The formulations of reagents used were: • Cell lysate: 20 mM Tris-base, pH 7.5, 150 mM NaCl, 1 mM EDTA, 1 mM EGTA, 2.5 mM Sodium pyrophosphate, 1 mM β-glycerolphosphate, 1% Triton X-100 (v/v); • 2*SDS solution: 20% Glycerol (v/v), 4% SDS (m/v), 10% β-mecaptoethanol (v/v), 0.01% Bromophenol blue (m/v); • TBST buffer: 4.84% Tris-base (m/v), 8% NaCl (m/v), 0.1% Tween-20 (v/v); • Primary antibody dilution: TBST buffer containing 5% BSA (v/v).
A general note: In western blotting, separated proteins are transferred to a membrane and probed.

Take `Cc1n(CCCCCCCCCCCCCCCCF)cc[n+]1Cc1c(Cl)cccc1Cl.Cl` [IA-1]: the half-life at 1 μM in data set [1] (liver microsomes) was 22.3 min. For the same molecule, in data set [2] (liver microsomes), the half-life at 1 μM turned out to be 8.5 min. Moreover, in data set [3], the “Degree of AMPK activation, p-ACC/ACC” value stood at 0.42 and the “Degree of AMPK activation, p-AMPKα/AMPK” value was determined as 1.01.
`Cc1n(CCCCCCCCCCCC(F)(F)C(F)(F)C(F)(F)F)cc[n+]1Cc1c(Cl)cccc1Cl.[Cl-]` [IB-4]: the half-life at 1 μM in data set [1] (microsomes) was more than 145 min. Moreover, the half-life at 1 μM in data set [2] (microsomes) is more than 145 min. In data set [3], the “Degree of AMPK activation, p-ACC/ACC” value turned out to be 0.80 and the “Degree of AMPK activation, p-AMPKα/AMPK” value stood at 1.66.
`Cc1n(CCCCCCCCCCCC(F)(F)C(F)(F)C(F)(F)C(F)(F)F)cc[n+]1Cc1c(Cl)cccc1Cl.[Cl-]` [IB-16]: the half-life at 1 μM in data set [1] (microsomes) is more than 145 min. Besides, in data set [2] (microsomes), the half-life at 1 μM is more than 145 min. For the same molecule, in data set [3], the “Degree of AMPK activation, p-ACC/ACC” value turned out to be 0.77 and the “Degree of AMPK activation, p-AMPKα/AMPK” value came out at 2.28.
On to `Cc1n(CCCCCCCCCCCC(F)(F)C(F)(F)C(F)(F)C(F)(F)C(F)(F)F)cc[n+]1Cc1c(F)cccc1Cl.[Cl-]` [IB-34], for which, in data set [1] (microsomes), the half-life at 1 μM is 192 min. In addition, the half-life at 1 μM in data set [2] (microsomes) was found to be 110 min. Besides, in data set [3], the “Degree of AMPK activation, p-ACC/ACC” value stood at 0.63 and the “Degree of AMPK activation, p-AMPKα/AMPK” value is 0.98.
For `Cc1n(CCCCCCCCCCCC(F)(F)C(F)(F)C(F)(F)C(F)(F)C(F)(F)F)cc[n+]1Cc1c(Cl)cccc1Cl.[I-]` [IB-38], in that order: more than 145 min, more than 145 min, 1.34 and 2.06.
For `CC(C)c1n(CCCCCCCCCCCC(F)(F)C(F)(F)C(F)(F)C(F)(F)C(F)(F)F)cc[n+]1Cc1c(Cl)cccc1Cl.[Cl-]` [IB-41], in that order: 85.3 min, 79.7 min, 1.49 and 0.94.
The matching figures for `FC(F)(F)C(F)(F)C(F)(F)C(F)(F)C(F)(F)CCCCCCCCCCCn1cc[n+](Cc2c(Cl)cccc2Cl)c1C1CC1.[Cl-]` [IB-44]: 93 min, 127 min, 1.56 and 0.59.
Take `Cc1n(CCCCCCCCCCCC(F)(F)C(F)(F)C(F)(F)C(F)(F)C(F)(F)C(F)(F)F)cc[n+]1Cc1c(Cl)cccc1Cl.[Cl-]` [IB-50]: in data set [1] (microsomes), the half-life at 1 μM was more than 145 min. In addition, the half-life at 1 μM in data set [2] (microsomes) was 122 min. Besides, in data set [3], the “Degree of AMPK activation, p-ACC/ACC” value is on record as 1.09 and the “Degree of AMPK activation, p-AMPKα/AMPK” value was 0.65.
For `CC(C)c1n(CCCCCCCCCCCC(F)(F)C(F)(F)C(F)(F)C(F)(F)C(F)(F)C(F)(F)F)cc[n+]1Cc1c(Cl)cccc1Cl.Cl` [IB-53], in data set [3], the “Degree of AMPK activation, p-ACC/ACC” value worked out at 1.23 and the “Degree of AMPK activation, p-AMPKα/AMPK” value was 0.76.
For `Br.COc1ccc(F)cc1C[n+]1ccn(CCCCCCCCCCCC(F)(F)C(F)(F)C(F)(F)C(F)(F)C(F)(F)C(F)(F)F)c1C(C)C` [IB-55], in that order: 1.98 and 0.87.
For `Cl.FC(F)(F)C(F)(F)C(F)(F)C(F)(F)C(F)(F)C(F)(F)CCCCCCCCCCCn1cc[n+](Cc2c(Cl)cccc2Cl)c1C1CC1` [IB-56], in that order: 0.99 and 0.85.
The matching figures for `Cc1n(CCCCCCCCCCCC(F)(F)C(F)(F)C(F)(F)C(F)(F)C(F)(F)F)cc[n+]1Cc1c(Cl)cccc1Cl` [IB-59]: 1.04 and 0.98.
For `Cc1n(CCCCCCCCCCCC(F)(F)C(F)(F)C(F)(F)C(F)(F)C(F)(F)F)cc[n+]1Cc1c(Cl)cccc1Cl` [IB-60], in data set [3], the “Degree of AMPK activation, p-ACC/ACC” value amounted to 1.01 and the “Degree of AMPK activation, p-AMPKα/AMPK” value came out at 0.94.
